# Measurements published in patent publication US20230346820A1, “METHODS AND COMPOSITIONS FOR THE TREATMENT OF SARS-COV-2” (priority 2020, published 2023).
# Structures can show the parent of a compound that is named as a salt. Where two headings read alike, the source gives them in different places.
# Tests used:
# HeLa-ACE2 cells [1] = test system: HeLa-ACE2 cells
# SARS-CoV-2 [2] = test system: SARS-CoV-2
# SARS-CoV-2 [3] = settings: for EC50: read-out: Calu-3 CoV-2 EC50
# SARS-CoV-2 [4] = test: microbe, parasite or virus in culture
# [5] = human, oral; cited from earlier work
# in vitro = settings: human
# SARS-CoV-2 [6] = test: Checkerboard synergy study with remdesivir (ZIP model, synergyfinder); format: cell-based
# [7] = rat, oral; cited from earlier work
# HeLa-ACE2 cells [8] = test: cells; format: cell-based, human
# [9] = read-out: HeLa-ACE2 Uninfected Tox CC50, Table 4, aggregated data, Geomean, n = 3
# [10] = read-out: HeLa-ACE2 CoV-2 EC50, Table 4, aggregated data, Geomean, n = 3
# [11] = Table 4, aggregated data, Geomean, n = 3, 48 h
# [12] = read-out: Calu-3 Uninfected Tox CC50, Table 4, aggregated data, Geomean, n = 3
# [13] = Severe acute respiratory syndrome coronavirus 2, HeLa-ACE2, 24 h, read-out: CoV-2 EC50 [μM] (Geomeans, n ≥ 2)
# [14] = CC50 [μM] (Geomeans, n ≥ 2 except where indicated: *n = 1)
# [15] = Severe acute respiratory syndrome coronavirus 2, HeLa-ACE2, read-out: SARS CoV-2 EC50 (μM)
# [16] = Table 1, ZIP model, δ>10 synergy, δ<−10 antagonism, between additive
Compound,CC50 (HeLa-ACE2 cells [1]; [9]),EC50 (SARS-CoV-2 [2]; [10]),Calu3 SI CC50/CoV-2 EC50 (SARS-CoV-2 [3]; Table 4),EC50 (SARS-CoV-2 [3]; [11]),CC50 (Calu-3 cells; [12]),HeLa-ACE2 CC50/CoV-2 EC50 (SARS-CoV-2 [2]),EC50 (SARS-CoV-2 [4]; [13]),Cmax [5],t1/2 [5],CC50 (in vitro; [14]),Synergy score with remdesivir (δ) (SARS-CoV-2 [6]; Table 3),EC50 (SARS-CoV-2 [4]; [15]),CC50 (in vitro; Uninfected HeLa-ACE2 CC50 (μM)),other results
CSc1ncnc2c1ncn2[C@@H]1O[C@H](CO)[C@@H](O)[C@H]1O [6-Methyl mercaptopurineriboside],15.4 µM,3.6 µM,5.80,0.207 µM,1.2 µM,–,–,–,–,–,–,–,–,HeLa-ACE2 SI CC50/CoV-2 EC50 (SARS-CoV-2 [2]; Table 4): 4.27
Oc1ccc(Nc2ccnc3cc(Cl)ccc23)cc1CN1CCCC1 [AMOPYROQUINE],–,–,–,–,–,19.02,0.904 µM,–,–,–,–,–,–,CC50 (HeLa-ACE2 cells [1]; human): 17.2 µM
CCOc1ccc(Cc2nc3cc(N(C)S(=O)(=O)c4cccs4)ccc3n2CC2CCCCC2)nc1 [AZ-11713908],33 µM,> 9.59 µM,>8,3.54 µM,> 29.9 µM,–,–,–,–,–,–,–,–,–
Cn1cnc([N+](=O)[O-])c1Sc1ncnc2[nH]cnc12 [Azathioprin],–,–,–,–,–,–,–,–,–,–,–,–,–,CC50 (HeLa-ACE2 cells [1]): 39 µM; HeLa-ACE2 SI CC50/CoV-2 EC50 (SARS-CoV-2 [2]): 7.67; EC50 (SARS-CoV-2 [2]; read-out: HeLa-ACE2 CoV-2 EC50): 5.08 µM; Calu3 SI CC50/CoV-2 EC50 (SARS-CoV-2 [3]): 7.35; EC50 (SARS-CoV-2 [3]): 0.482 µM; CC50 (Calu-3 cells): 3.55 µM
Nc1nc(Nc2ccc3c(c2)CC[C@@H](N2CCCC2)CC3)nn1-c1cc2c(nn1)-c1ccccc1CCC2 [BGB324/R-428],–,–,–,–,–,13.05,1.2 µM,~750 nM,"~80 h (oral, humans)(30)",15.7 µM,7.223,1.2 µM,–,–
O=c1[nH]c2ccc(C(F)(F)F)cc2c(-c2cc(Cl)ccc2O)c1CCO [BMS-223131],21.4 µM,> 9.59 µM,>5.8,5.14 µM,> 29.9 µM,–,–,–,–,–,–,–,–,–
Cc1nc2c(s1)C(=O)C=C(NCCN(C)C)C2=O [BN-82685],4.66 µM,1.53 µM,5.69,3.05 µM,5.96 µM,–,–,–,–,–,–,–,–,HeLa-ACE2 SI CC50/CoV-2 EC50 (SARS-CoV-2 [2]; Table 4): 3.04
Nc1nccc2c1ncn2C1C=C(CO)C(O)C1O (stereo not drawn) [DEAZANEPLANOCINA],7.95 µM,> 9.59 µM,182.24,0.057 µM,10.3 µM,–,–,–,–,–,–,–,–,–
CCc1ccc2c(c1)N(CC(C)CN(C)C)c1ccccc1S2 (stereo not drawn) [Ethylisobutrazine Hydrochloride],–,–,–,–,–,10.48,2 µM,–,–,–,–,–,–,CC50 (HeLa-ACE2 cells [1]; human): 20.9 µM
N#Cc1c(N)nc(N)nc1N[C@H](c1nc2c(F)ccc(Cl)c2c(=O)n1-c1cccnc1)C1CC1 [GS-9901],–,–,–,–,–,>8.17,3.81 µM,–,–,> 31.1 µM,–,–,> 31.1 µM,"Cmax [7]: ~1800 nM; t1/2 [7]: ~2 h (rat, oral)(36)"
CCCCN(CCCC)CCC(O)c1cc2c(Cl)cc(Cl)cc2c2cc(C(F)(F)F)ccc12 (stereo not drawn) [Halofantrine HCl],–,–,–,–,–,>20.66,1.16 µM,~1000 nM,"~72 h (human oral)(16, 17)",> 23.9 µM,−3.509,1.16 µM,> 23.9 µM,–
NC1(c2ccc(-c3nc4ccn5c(=O)[nH]nc5c4cc3-c3ccccc3)cc2)CCC1 [MK-2206],–,–,–,–,–,>20.63,–,~571 nM,"~75 h (human, oral)(29)",–,2.087,–,–,"EC50 (HeLa-ACE2 cells [8]; read-out: HeLa-ACE-2 EC50 [μM] (Geomeans, n ≥ 2)): > 9.59 µM; CC50 (HeLa-ACE2 cells [1]): > 22.8 µM; Synergy score with remdesivir (δ) (SARS-CoV-2 [6]; [16]): 2.087; EC50 (SARS-CoV-2 [2]; read-out: CoV-2 EC50 [μM] (Geomeans, n ≥ 2)): 1.1 µM; EC50 (SARS-CoV-2 [2]; read-out: SARS CoV-2 EC50): 1.1 µM"
C=CC(=O)Nc1cc(Nc2nccc(-c3cn(C)c4ccccc34)n2)c(OC)cc1N(C)CCN(C)C [Osimertinib],–,–,–,–,–,>18.79,0.962 µM,~1500 nM,"~42 h (human, oral)(33, 34)",> 18.1 µM,−0.722,0.962 µM,> 18.1 µM,Synergy score with remdesivir (δ) (SARS-CoV-2 [6]; [16]): −0.722
CC(C)Oc1ccc(-c2nc(-c3cccc4c3CC[C@@H]4NCCO)no2)cc1C#N [Ozanimod],–,–,–,–,–,>5.60,2.63 µM,~1200 nM,"~21 h (human, oral)(24)",> 14.7 µM,−4.62,2.63 µM,> 14.7 µM,–
Nc1cc(OCC2CC2)c(C(=O)NC2CN3CCC2CC3)cc1Cl (stereo not drawn) [Pancopride],–,–,–,–,–,4.32,> 8.64 µM,~300 nM,"~16 h (human, oral)(26)",> 37.3 µM,0.65,> 8.64 µM,> 37.3 µM,"EC50 (HeLa-ACE2 cells [8]; Homo sapiens, HeLa-ACE2, read-out: HeLa-ACE-2 EC50 [μM] (Geomeans, n ≥ 2)): > 9.59 µM; Synergy score with remdesivir (δ) (SARS-CoV-2 [6]; [16]): 0.648"
